Bounds are passed on as bounds.

By IC50 is commonly meant the midpoint of a concentration-inhibition curve. A word on the EC50: it is the concentration needed to bring the measured effect to its halfway point.

In one experiment the target is human KHK-C (Homo sapiens (Human), UniProt P50053). The experiment is described as follows: KHK Biochemical Assay (IC50), ADP-Glo, KHK-C. Particulars: ADP-Glo; average of at least two separate assays. The gist of the method:
(§1)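 Luminescent ADP-Glo read-out of ADP made by His-tagged KHK (BL21 (DE3) expression, Ni-NTA). Enzyme and compound sat together 30 min before ATP/fructose addition, then reacted 4 h at RT in Hepes pH 7.4 buffer with KCl, MgCl2, Triton-X. Quench 1 h, detection 1 h.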
Background: ADP-Glo turns the ADP formed in a reaction into a luminescent signal.

The next experiment has as its target human KHK-A (Homo sapiens (Human), UniProt P50053). The experiment is described as follows: KHK Biochemical Assay (IC50), ADP-Glo, KHK-A. Particulars: ADP-Glo; average of at least two separate assays. The gist of the method:
as §1

In experiment [1] the target is KHK-C expressed in NRK-52E cells (Homo sapiens (Human), UniProt P50053). Briefly: KHK-C Cell-based Assay (EC50), NRK CTG, fructose-mediated ATP-depletion.
KHK-C expressed in NRK-52E cells, sequence (P50053 whole entry): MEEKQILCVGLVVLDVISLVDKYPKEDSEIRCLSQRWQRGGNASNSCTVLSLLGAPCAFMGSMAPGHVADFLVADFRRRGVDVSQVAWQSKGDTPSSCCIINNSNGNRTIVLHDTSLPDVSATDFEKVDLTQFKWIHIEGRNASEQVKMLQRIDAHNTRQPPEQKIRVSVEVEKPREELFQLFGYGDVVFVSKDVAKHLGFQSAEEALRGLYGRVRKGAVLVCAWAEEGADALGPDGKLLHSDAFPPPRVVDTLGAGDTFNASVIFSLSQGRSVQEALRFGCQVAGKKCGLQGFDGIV

human KHK-C, sequence (P50053 whole entry): as above
human KHK-A, sequence (P50053 other isoform, or with tags, fused parts or gaps): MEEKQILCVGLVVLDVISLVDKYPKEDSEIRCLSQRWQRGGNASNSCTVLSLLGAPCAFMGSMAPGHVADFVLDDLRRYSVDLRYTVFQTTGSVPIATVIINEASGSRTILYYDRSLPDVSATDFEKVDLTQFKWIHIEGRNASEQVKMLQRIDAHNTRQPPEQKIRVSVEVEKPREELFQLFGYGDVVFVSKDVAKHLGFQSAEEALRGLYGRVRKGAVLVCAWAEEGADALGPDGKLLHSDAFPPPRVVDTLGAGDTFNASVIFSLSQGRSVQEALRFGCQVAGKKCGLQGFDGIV

Take `C[C@H]1CCN1c1nc2c(c(-c3ccc(F)c(S(N)(=O)=O)c3)n1)CCC2` [Example 122, (S)-2-fluoro-5-(2-(2-methylazetidin-1-yl)-6,7-dihydro-5H-cyclopenta[d]pyrimidin-4-yl)benzenesulfonamide]: the IC50 is 41.8 nM at human KHK-C and 44.5 nM against human KHK-A. Moreover, the 50% effective concentration (EC50) in experiment [1] was 51.8 nM.

Turning to `Cc1ccc(-c2nc(N3CC[C@@H]3C)nc3c2CCC3)cc1S(N)(=O)=O` [Example 123, (S)-2-methyl-5-(2-(2-methylazetidin-1-yl)-6,7-dihydro-5H-cyclopenta[d]pyrimidin-4-yl)benzenesulfonamide], the concentration for half-maximal inhibition (IC50) was determined as 30.5 nM at human KHK-C and 40.2 nM against human KHK-A. The compound further had an EC50 in experiment [1] of 62.4 nM.

On to `C[C@H]1CCN1c1nc2c(c(-c3ccc(C(N)=O)cc3)n1)CC2` [Example 124, (S)-4-(3-(2-methylazetidin-1-yl)-2,4-diazabicyclo[4.2.0]octa-1,3,5-trien-5-yl)benzamide], for which the figures for the concentration for half-maximal inhibition (IC50) against human KHK-C and against human KHK-A were 328 nM and 535 nM, respectively. In addition, the concentration giving a half-maximal response (EC50) in experiment [1] turned out to be 973 nM.

On to `C[C@H]1[C@H](O)CN1c1nc2c(c(-c3ccc(C(N)=O)cc3)n1)CC2` [Example 125], for which the IC50 on human KHK-C was found to be 572 nM; on human KHK-A, 932 nM. For the same compound, in experiment [1], the EC50 turned out to be 3560 nM.

Take `C[C@H]1CCN1c1nc2c(c(-c3ccc(OC(F)(F)F)c(S(N)(=O)=O)c3)n1)CCC2` [Example 126, (S)-5-(2-(2-methylazetidin-1-yl)-6,7-dihydro-5H-cyclopenta[d]pyrimidin-4-yl)-2-(trifluoromethoxy)benzenesulfonamide]: the IC50 against human KHK-C stood at 400 nM; against human KHK-A, 406 nM. In experiment [1], the half-maximal effective concentration (EC50) is 253 nM.

Take `C[C@H]1CCN1c1nc2c(c(-c3ccc(C4(O)COC4)cc3)n1)CCC2` [Example 127, (S)-3-(4-(2-(2-methylazetidin-1-yl)-6,7-dihydro-5H-cyclopenta[d]pyrimidin-4-yl)phenyl)oxetan-3-ol]: the half-inhibitory concentration (IC50) amounted to 65.5 nM at human KHK-C and 99.6 nM against human KHK-A. Moreover, the midpoint of the response in experiment [1], the EC50, lay at 223 nM.

Take `C[C@H]1CCN1c1nc(-c2ccc(C(N)=O)cc2)c2c(n1)C(F)(F)CC2` [Example 128, (S)-4-(7,7-difluoro-2-(2-methylazetidin-1-yl)-6,7-dihydro-5H-cyclopenta[d]pyrimidin-4-yl)benzamide]: the half-inhibitory concentration (IC50) on human KHK-C and on human KHK-A was 2.3 nM each time. This compound showed an EC50 in experiment [1] of 6.3 nM.

Regarding `C[C@H]1CCN1c1nc2c(c(-c3cc(S(N)(=O)=O)c(F)cc3F)n1)CCC2` [Example 130, (S)-2,4-difluoro-5-(2-(2-methylazetidin-1-yl)-6,7-dihydro-5H-cyclopenta[d]pyrimidin-4-yl)benzenesulfonamide], the half-inhibitory concentration (IC50) on human KHK-C and against human KHK-A was greater than 5000 nM in each case. The 50% effective concentration (EC50) in experiment [1] is greater than 5000 nM.

Regarding `C[C@H]1CCN1c1nc2c(c(-c3ccc4ccc(=O)[nH]c4c3)n1)CCC2` [Example 132, (S)-7-(2-(2-methylazetidin-1-yl)-6,7-dihydro-5H-cyclopenta[d]pyrimidin-4-yl)quinolin-2(1H)-one], the IC50 on human KHK-C is 71.8 nM; against human KHK-A, 97.6 nM. Also, in experiment [1], the EC50 was 131 nM.

Consider `C[C@H]1CCN1c1nc2c(c(-c3ccc4ccc(=O)n(CCC(=O)O)c4c3)n1)CCC2` [Example 133, (S)-3-(7-(2-(2-methylazetidin-1-yl)-6,7-dihydro-5H-cyclopenta[d]pyrimidin-4-yl)-2-oxoquinolin-1(2H)-yl)propanoic acid], for which the figures for the half-inhibitory concentration (IC50) against human KHK-C and at human KHK-A were 141 nM and 236 nM, respectively. The compound further came in with a 50% effective concentration (EC50) in experiment [1] greater than 5000 nM.

With `C[C@H]1CCN1c1nc2c(c(-c3ccc4c(c3)CC(CC(=O)O)C4)n1)CCC2` (stereo partly drawn) [Example 134, 2-(5-(2-((S)-2-methylazetidin-1-yl)-6,7-dihydro-5H-cyclopenta[d]pyrimidin-4-yl)-2,3-dihydro-1H-inden-2-yl)acetic acid], the 50% inhibitory concentration (IC50) against human KHK-C came to 89.9 nM; at human KHK-A, 158 nM. The same compound showed a concentration for a half-maximal effect (EC50) in experiment [1] of 1030 nM.

Consider `C[C@H]1CCN1c1nc2c(c(-c3ccc4c(c3)CC(CC(N)=O)C4)n1)CCC2` (stereo partly drawn) [Example 135, 2-(5-(2-((S)-2-methylazetidin-1-yl)-6,7-dihydro-5H-cyclopenta[d]pyrimidin-4-yl)-2,3-dihydro-1H-inden-2-yl)acetamide], for which the IC50 was found to be 111 nM on human KHK-C and 126 nM on human KHK-A. The EC50 in experiment [1] was determined as 277 nM.

As to `C[C@H]1CCN1c1nc2c(c(-c3ccc4c(c3)CC3C(C(=O)O)C43)n1)CCC2` (stereo partly drawn) [Example 136, 4-(2-((S)-2-methylazetidin-1-yl)-6,7-dihydro-5H-cyclopenta[d]pyrimidin-4-yl)-1,1a,6,6a-tetrahydrocyclopropa[a]indene-1-carboxylic acid], the values for the IC50 against human KHK-C and at human KHK-A were 62 nM and 114 nM, respectively. The compound further gave a concentration giving a half-maximal response (EC50) in experiment [1] of 2460 nM.

In the case of `C[C@H]1CCN1c1nc2c(c(-c3ccc4c(c3)CC(C(=O)O)C4)n1)CCC2` (stereo partly drawn) [Example 139, 5-(2-((S)-2-methylazetidin-1-yl)-6,7-dihydro-5H-cyclopenta[d]pyrimidin-4-yl)-2,3-dihydro-1H-indene-2-carboxylic acid], the results for the IC50 at human KHK-C and against human KHK-A were 55.3 nM and 85.8 nM, respectively. The compound further displayed an EC50 in experiment [1] of 2490 nM.

`C[C@H]1CCN1c1nc2c(c(-c3ccc4c(c3)CC(C(N)=O)C4)n1)CCC2` (stereo partly drawn) [Example 140, 5-(2-((S)-2-methylazetidin-1-yl)-6,7-dihydro-5H-cyclopenta[d]pyrimidin-4-yl)-2,3-dihydro-1H-indene-2-carboxamide]: the IC50 came out at 52.8 nM at human KHK-C and 28.1 nM against human KHK-A. Further, in experiment [1], the concentration for a half-maximal effect (EC50) was determined as 163 nM.

For the compound `C[C@@H]1N(c2nc3c(c(-c4ccc(C(N)=O)cc4)n2)CCC3)C[C@@]1(C)O` [Example 141], the IC50 stood at 290 nM at human KHK-C and 334 nM against human KHK-A. Further, in experiment [1], a half-maximal effect (EC50) was put at 1260 nM.

For `NC(=O)c1ccc(-c2nc(N3CCCC3)nc3c2CCC3)cc1` [Example 142, 4-(2-(pyrrolidin-1-yl)-6,7-dihydro-5H-cyclopenta[d]pyrimidin-4-yl)benzamide], the IC50 on human KHK-C was determined as 2430 nM; against human KHK-A, 2110 nM. This compound registered an EC50 in experiment [1] of 2040 nM.

Regarding `C[C@H]1CCN1c1nc2c(c(-c3ccc4nc(N)ccc4c3)n1)CCC2` [Example 143, (S)-6-(2-(2-methylazetidin-1-yl)-6,7-dihydro-5H-cyclopenta[d]pyrimidin-4-yl)quinolin-2-amine], the figures for the half-maximal inhibitory concentration (IC50) at human KHK-C and at human KHK-A were 30.6 nM and 21.4 nM, respectively. In addition, in experiment [1], the EC50 stood at 43.3 nM.

On to `C[C@H]1CCN1c1nc2c(c(-c3ccc(C(N)=O)c4ccccc34)n1)CCC2` [Example 144, (S)-4-(2-(2-methylazetidin-1-yl)-6,7-dihydro-5H-cyclopenta[d]pyrimidin-4-yl)-1-naphthamide], for which the concentration for half-maximal inhibition (IC50) is 2400 nM at human KHK-C and 1690 nM against human KHK-A. For the same compound, in experiment [1], the EC50 came to 2440 nM.

Consider `C[C@H]1CCN1c1nc2c(c(-c3ccc4c(c3)C3(CCC4)CC3C(=O)O)n1)CCC2` (stereo partly drawn) [Example 148, 7′-(2-((S)-2-methylazetidin-1-yl)-6,7-dihydro-5H-cyclopenta[d]pyrimidin-4-yl)-3′,4′-dihydro-2′H-spiro[cyclopropane-1,1′-naphthalene]-2-carboxylic acid], for which the IC50 came out at 59.9 nM against human KHK-C and 84 nM against human KHK-A. Also, in experiment [1], the concentration giving a half-maximal response (EC50) was determined as 653 nM.
